{
  "source": "paper PMC12279247",
  "about": "“Inhibition of RACK1‐Mediated NLRP3 Oligomerization (Active Conformation) Ameliorates Acute Respiratory Distress Syndrome” (Advanced Science, 2025)",
  "target": "T1, recombinant human RACK1 protein (Homo sapiens, UniProt P63244)",
  "T1 construct": "commercial recombinant protein",
  "experiment": "surface plasmon resonance, bigelovin loaded on CM5 chip, RACK1 flowed over",
  "format": "binding",
  "details": "PBS pH 7.4, 0.05% Tween-20, 22 °C; covalent, Cys168",
  "data": [
    {"compound": "C=C1C(=O)O[C@H]2C[C@@H](C)[C@@H]3C=CC(=O)[C@@]3(C)[C@@H](OC(C)=O)[C@H]12", "note": "[bigelovin]", "values": [
      {"measurement": "Kd", "result": 0.24, "unit": "µM"}
    ]}
  ]
}
